Experimental data published in ChEMBL document CHEMBL1149774, “Synthesis of N-(5,7-diamino-3-phenyl-quinoxalin-2-yl)-3,4,5-substituted anilines and N-[4[(5,7-diamino-3-phenylquinoxalin-2-yl)amino]benzoyl]-l-glutamic acid diethyl ester: evaluation of in vitro anti-cancer and anti-folate activities” (Eur J Med Chem, 2008).

Columns and labels:
SW-620 = experiment: Growth inhibition of human SW620 cells after 48 hrs by SRB staining method; format: functional; conditions: SW-620, 48 h
NCI-H322M = experiment: Growth inhibition of human NCI-H322M cells after 48 hrs by SRB staining method; format: functional
HOP-62 = experiment: Growth inhibition of human HOP62 cells after 48 hrs by SRB staining method; format: functional; conditions: HOP-62, 48 h
SK-MEL-28 = experiment: Growth inhibition of human SK-MEL-28 cells after 48 hrs by SRB staining method; format: functional; conditions: SK-MEL-28, 48 h
Dihydrofolate reductase = target: T1, Dihydrofolate reductase (Homo sapiens, UniProt P00374); experiment: Inhibition of human dihydrofolate reductase
T1 sequence (P00374 whole entry): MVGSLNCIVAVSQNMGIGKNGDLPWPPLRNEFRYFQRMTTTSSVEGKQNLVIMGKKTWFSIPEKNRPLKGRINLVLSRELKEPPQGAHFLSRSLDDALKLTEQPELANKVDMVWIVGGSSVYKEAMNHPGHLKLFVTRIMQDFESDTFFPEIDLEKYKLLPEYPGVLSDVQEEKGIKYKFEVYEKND

RPMI-8226 = experiment: Growth inhibition of human RPMI8226 cells after 48 hrs by SRB staining method; format: functional; conditions: RPMI-8226, 48 h
SN12C = experiment: Growth inhibition of human SN12C cells after 48 hrs by SRB staining method; format: functional
HOP-92 = experiment: Growth inhibition of human HOP92 cells after 48 hrs by SRB staining method; format: functional; conditions: HOP-92, 48 h
KM12 = experiment: Growth inhibition of human KM12 cells after 48 hrs by SRB staining method; format: functional; conditions: KM12, 48 h
MDA-MB-435 = experiment: Growth inhibition of human MDA-MB-435 cells after 48 hrs by SRB staining method; format: functional; conditions: MDA-MB-435, 48 h
EKVX = experiment: Growth inhibition of human EKVX cells after 48 hrs by SRB staining method; format: functional
SK-MEL-5 = experiment: Growth inhibition of human SK-MEL-5 cells after 48 hrs by SRB staining method; format: functional; conditions: SK-MEL-5, 48 h
MDA-N = experiment: Growth inhibition of human MDA-N cells after 48 hrs by SRB staining method; format: functional
HCC 2998 = experiment: Growth inhibition of human HCC2998 cells after 48 hrs by SRB staining method; format: functional; conditions: HCC 2998, 48 h
OVCAR-4 = experiment: Growth inhibition of human OVCAR4 cells after 48 hrs by SRB staining method; format: functional; conditions: OVCAR-4, 48 h
HCT-116 = experiment: Growth inhibition of human HCT116 cells after 48 hrs by SRB staining method; format: functional; conditions: HCT-116, 48 h
Thymidylate synthase = Thymidylate synthase (Homo sapiens, UniProt P04818)
Sequence of Thymidylate synthase (P04818 whole entry): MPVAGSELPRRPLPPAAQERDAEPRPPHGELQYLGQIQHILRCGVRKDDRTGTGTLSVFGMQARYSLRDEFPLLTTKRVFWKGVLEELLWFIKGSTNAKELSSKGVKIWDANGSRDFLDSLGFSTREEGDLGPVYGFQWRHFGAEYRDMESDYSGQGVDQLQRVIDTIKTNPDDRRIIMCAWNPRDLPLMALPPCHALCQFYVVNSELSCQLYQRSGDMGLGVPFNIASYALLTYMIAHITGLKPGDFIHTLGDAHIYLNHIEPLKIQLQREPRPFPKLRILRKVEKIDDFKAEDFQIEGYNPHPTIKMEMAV
Description: Inhibition of human thymidylate synthase

CCRF-CEM = experiment: Growth inhibition of human CCRF-CEM cells after 48 hrs by SRB staining method; format: functional
NCI-H522 = experiment: Growth inhibition of human NCI-H522 cells after 48 hrs by SRB staining method; format: functional; conditions: NCI-H522, 48 h
OVCAR-3 = experiment: Growth inhibition of human OVCAR-3 cells after 48 hrs by SRB staining method; format: functional; conditions: OVCAR-3, 48 h
HT-29 = experiment: Growth inhibition of human HT29 cells after 48 hrs by SRB staining method; format: functional; conditions: HT-29, 48 h
M14 = experiment: Growth inhibition of human M14 cells after 48 hrs by SRB staining method; format: functional; conditions: M14, 48 h
A549 = experiment: Growth inhibition of human A549 cells after 48 hrs by SRB staining method; format: functional; conditions: A549, 48 h
LOX IMVI = experiment: Growth inhibition of human LOX IMVI cells after 48 hrs by SRB staining method; format: functional
TK-10 = experiment: Growth inhibition of human TK10 cells after 48 hrs by SRB staining method; format: functional; conditions: TK-10, 48 h
SNB-75 = experiment: Growth inhibition of human SNB75 cells after 48 hrs by SRB staining method; format: functional; conditions: SNB-75, 48 h
[1] = Growth inhibition of human HS 578T cells after 48 hrs by SRB staining method; format: functional
[2] = read-out: pLC50 (the source's name) (converted)

SMILES: COc1ccc(Nc2nc3cc(N)cc(N)c3nc2-c2ccccc2)cc1
- GI50 (SW-620): 22.4 µM
- CC50 (SW-620; [2]): 60.3 µM
- TGI (SW-620; read-out: pTGI (converted)): 37.2 µM
- GI50 (NCI-H322M): 23.4 µM
- LC50 (NCI-H322M): > 100 µM
- TGI (NCI-H322M; read-out: pTGI (converted)): 83.2 µM
- GI50 (HOP-62): 27.5 µM
- LC50 (HOP-62): > 100 µM
- TGI (HOP-62; read-out: pTGI (converted)): > 100 µM
- GI50 (SK-MEL-28): 17 µM
- CC50 (SK-MEL-28; [2]): 55 µM
- TGI (SK-MEL-28; read-out: pTGI (converted)): 30.2 µM
- Ki (Dihydrofolate reductase): 1.8 µM
- GI50 (RPMI-8226): 19.1 µM
- CC50 (RPMI-8226; [2]): > 100 µM
- TGI (RPMI-8226; read-out: pTGI (converted)): > 100 µM
- GI50 (SN12C): 20.4 µM
- CC50 (SN12C; [2]): > 100 µM
- TGI (SN12C; read-out: pTGI (converted)): 57.5 µM
- GI50 (HOP-92): 20 µM
- LC50 (HOP-92): > 100 µM
- TGI (HOP-92; read-out: pTGI (converted)): 52.5 µM
- GI50 (KM12): 15.8 µM
- LC50 (KM12): 60.3 µM
- TGI (KM12; read-out: pTGI (converted)): 30.9 µM
- GI50 (MDA-MB-435): 16.6 µM
- CC50 (MDA-MB-435; [2]): 55 µM
- TGI (MDA-MB-435; read-out: pTGI (converted)): 30.2 µM
- GI50 (EKVX): 25.7 µM
- CC50 (EKVX; [2]): > 100 µM
- TGI (EKVX; read-out: pTGI (converted)): > 100 µM
- GI50 (SK-MEL-5): 15.1 µM
- LC50 (SK-MEL-5): 53.7 µM
- TGI (SK-MEL-5; read-out: pTGI (converted)): 28.8 µM
- GI50 (MDA-N): 21.4 µM
- CC50 (MDA-N; [2]): 60.3 µM
- TGI (MDA-N; read-out: pTGI (converted)): 36.3 µM
- GI50 (HCC 2998): 28.2 µM
- LC50 (HCC 2998): > 100 µM
- TGI (HCC 2998; read-out: pTGI (converted)): > 100 µM
- GI50 (OVCAR-4): 10.5 µM
- LC50 (OVCAR-4): 46.8 µM
- TGI (OVCAR-4; read-out: pTGI (converted)): 21.9 µM
- GI50 (HCT-116): 14.8 µM
- LC50 (HCT-116): 52.5 µM
- TGI (HCT-116; read-out: pTGI (converted)): 28.2 µM
- Ki (Thymidylate synthase): 6 µM
- GI50 (CCRF-CEM): 12 µM
- CC50 (CCRF-CEM; [2]): > 100 µM
- TGI (CCRF-CEM; read-out: pTGI (converted)): > 100 µM
- GI50 (NCI-H522): 14.8 µM
- LC50 (NCI-H522): 52.5 µM
- TGI (NCI-H522; read-out: pTGI (converted)): 28.2 µM
- GI50 (OVCAR-3): 17.4 µM
- LC50 (OVCAR-3): 79.4 µM
- TGI (OVCAR-3; read-out: pTGI (converted)): 37.2 µM
- GI50 (HT-29): 24 µM
- LC50 (HT-29): 89.1 µM
- TGI (HT-29; read-out: pTGI (converted)): 42.7 µM
- GI50 (M14): 17.8 µM
- LC50 (M14): 75.9 µM
- TGI (M14; read-out: pTGI (converted)): 36.3 µM
- GI50 (A549): 27.5 µM
- CC50 (A549; [2]): > 100 µM
- TGI (A549; read-out: pTGI (converted)): > 100 µM
- GI50 (LOX IMVI): 16.2 µM
- LC50 (LOX IMVI): 55 µM
- TGI (LOX IMVI; read-out: pTGI (converted)): 29.5 µM
- GI50 (TK-10): 16.6 µM
- CC50 (TK-10; [2]): > 100 µM
- TGI (TK-10; read-out: pTGI (converted)): 42.7 µM
- GI50 (SNB-75): 14.5 µM
- LC50 (SNB-75): > 100 µM
- TGI (SNB-75; read-out: pTGI (converted)): 42.7 µM
- GI50 [1]: 14.5 µM
- CC50 [1, 2]: > 100 µM
- TGI ([1]; read-out: pTGI (converted)): 46.8 µM
